Measured values: patent publication US20260374754A1, “N-((ISOQUINOLIN-6-YL)METHYL)-1H-PYRAZOLE-4-CARBOXAMIDE DERIVATIVES AS PLASMA KALLIKREIN INHIBITORS FOR THE TREATMENT OF HEREDITARY ANGIODEMA” (Takeda Pharmaceutical Company Limited, priority 2022, published 2026)
Structures can show the parent of a compound that is named as a salt.

Target: human activated kallikrein enzyme (Homo sapiens, UniProt P03952)
Assay: Inhibition of human activated plasma kallikrein, fluorogenic PFR-AMC substrate, 500 pM enzyme format
Type: biochemical
Settings: 500 pM activated kallikrein; 300 μM PFR-AMC; 30 min preincubation; 10 min room temperature; pH 7.5; read-out: Primary Dose Response Assay: Average EC50
Procedure, shortened: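 500 pM activated kallikrein preincubated 30 min at room temperature with inhibitors in pH 7.5 Tris/EDTA/NaCl buffer with PEG-400 and Triton X-100. Reaction started with 300 μM PFR-AMC, run 10 min at room temperature; AMC fluorescence read at ex 380/em 460 nm.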

human activated kallikrein enzyme, sequence (P03952 391-638 limits assumed): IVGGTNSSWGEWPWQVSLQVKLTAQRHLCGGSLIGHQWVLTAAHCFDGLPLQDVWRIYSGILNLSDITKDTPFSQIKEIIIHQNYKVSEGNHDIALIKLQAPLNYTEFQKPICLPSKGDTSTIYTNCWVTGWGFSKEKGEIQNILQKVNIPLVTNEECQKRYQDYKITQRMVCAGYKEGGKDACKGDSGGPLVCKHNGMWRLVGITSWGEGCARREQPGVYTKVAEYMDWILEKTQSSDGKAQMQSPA
human activated kallikrein enzyme, sequence (P03952 20-390 partner limits assumed): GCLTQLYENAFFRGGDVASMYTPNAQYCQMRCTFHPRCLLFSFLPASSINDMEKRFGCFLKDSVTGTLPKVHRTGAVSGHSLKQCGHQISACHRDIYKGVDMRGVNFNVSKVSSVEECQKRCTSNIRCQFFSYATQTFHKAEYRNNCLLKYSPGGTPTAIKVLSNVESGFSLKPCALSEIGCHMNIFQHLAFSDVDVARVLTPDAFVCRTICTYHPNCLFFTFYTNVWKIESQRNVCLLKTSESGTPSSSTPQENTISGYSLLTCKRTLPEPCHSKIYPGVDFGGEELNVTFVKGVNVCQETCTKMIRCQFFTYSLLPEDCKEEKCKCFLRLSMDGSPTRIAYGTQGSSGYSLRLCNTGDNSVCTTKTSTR

Row | Compound | EC50 [nM]
1 | Cc1cc2c(N)nccc2c(C)c1CNc1cc(NCc2ccc(Cc3nccs3)cc2)ncn1 [Example 362, N^4-((1-amino-5,7-dimethylisoquinolin-6-yl)methyl)-N^6-(4-(thiazol-2-ylmethyl)benzyl)pyrimidine-4,6-diamine] | < 1
2 | Cc1cc2c(N)nccc2c(C)c1CNc1cc2c(Cc3ccc4ccccc4c3)c[nH]c2cn1 [Example 526, 5,7-dimethyl-6-(((3-(naphthalen-2-ylmethyl)-1H-pyrrolo[2,3-c]pyridin-5-yl)amino)methyl)isoquinolin-1-amine] | > 1000
3 | Cc1cc2c(N)nccc2c(C)c1CNC(=O)c1cnn(Cc2cc3ccc(Cl)cc3s2)c1 [Example 81, N-((1-amino-5,7-dimethylisoquinolin-6-yl)methyl)-1-((6-chlorobenzo[b]thiophen-2-yl)methyl)-1H-pyrazole-4-carboxamide] | 1 to 10
4 | Cc1cnc2cc(CNc3cc(NCc4c(C)cc5c(N)nccc5c4C)ncn3)ccc2c1 [Example 311, N^4-((1-amino-5,7-dimethylisoquinolin-6-yl)methyl)-N^6-((3-methylquinolin-7-yl)methyl)pyrimidine-4,6-diamine] | 1 to 10
5 | Cc1cc2c(N)nccc2c(C)c1CNc1cc(OCc2cnc3ccc(F)cc3c2)cnn1 [Example 415, 6-(((5-((6-fluoroquinolin-3-yl)methoxy)pyridazin-3-yl)amino)methyl)-5,7-dimethylisoquinolin-1-amine] | < 1
6 | Cc1cc2c(N)nccc2c(C)c1CNc1cc(NCc2cc3ccccc3cn2)ncn1 [Example 315, N^4-((1-amino-5,7-dimethylisoquinolin-6-yl)methyl)-N^6-(isoquinolin-3-ylmethyl)pyrimidine-4,6-diamine] | 1 to 10
7 | Cc1cc2c(N)nccc2c(C)c1CNc1cc(OCc2ccc(CN3CCOCC3=O)cc2)ncn1 [Example 302, 4-(4-(((6-(((1-amino-5,7-dimethylisoquinolin-6-yl)methyl)amino)pyrimidin-4-yl)oxy)methyl)benzyl)morpholin-3-one, trifluoroacetic acid salt] | 1 to 10
8 | Cc1ccc2nc(Cn3cc(C(=O)NCc4c(C)cc5c(N)nccc5c4C)cn3)nn2c1 [Example 15, N-((1-amino-5,7-dimethylisoquinolin-6-yl)methyl)-1-((6-methyl-[1,2,4]triazolo[1,5-a]pyridin-2-yl)methyl)-1H-pyrazole-4-carboxamide] | < 1
9 | Cc1cc2c(N)nccc2c(C)c1CNc1cc(NCc2cc(C)c(OCc3ccccn3)c(C)c2)ncn1 [Example 353, N^4-((1-amino-5,7-dimethylisoquinolin-6-yl)methyl)-N^6-(3,5-dimethyl-4-(pyridin-2-ylmethoxy)benzyl)pyrimidine-4,6-diamine, formic acid salt] | 10 to 100
10 | Cc1cc2c(N)nccc2c(C)c1CNc1cc(NCc2ccc(Cn3cccn3)cc2)cnn1 [Example 447, N^5-(4-((1H-pyrazol-1-yl)methyl)benzyl)-N^3-((1-amino-5,7-dimethylisoquinolin-6-yl)methyl)pyridazine-3,5-diamine] | < 1
11 | Cc1cc2c(N)nccc2c(C)c1CNC(=O)c1cnn(Cc2cn3c(C)c(C4CC4)ccc3n2)c1 [Example 104, N-((1-amino-5,7-dimethylisoquinolin-6-yl)methyl)-1-((6-cyclopropyl-5-methylimidazo[1,2-a]pyridin-2-yl)methyl)-1H-pyrazole-4-carboxamide] | < 1
12 | Cc1cc2c(N)nccc2c(C)c1CNc1cc(N(Cc2cn3nc(C4CC4)ccc3n2)CC(F)(F)F)ncn1 [Example 516, N^4-((1-amino-5,7-dimethylisoquinolin-6-yl)methyl)-N^6-((6-cyclopropylimidazo[1,2-b]pyridazin-2-yl)methyl)-N6-(2,2,2-trifluoroethyl)pyrimidine-4,6-diamine] | 10 to 100
13 | Cc1cc2c(N)nccc2c(C)c1CNC(=O)c1cnn(Cc2cccc(Cl)c2)c1 [Example 98, N-((1-amino-5,7-dimethylisoquinolin-6-yl)methyl)-1-(3-chlorobenzyl)-1H-pyrazole-4-carboxamide] | 10 to 100
14 | CNc1nccc2c(C)c(CNC(=O)c3cnn(Cc4cn5cc(C6CC6)ccc5n4)c3)c(C)cc12 [Example 134, 1-((6-cyclopropylimidazo[1,2-a]pyridin-2-yl)methyl)-N-((5,7-dimethyl-1-(methylamino)isoquinolin-6-yl)methyl)-1H-pyrazole-4-carboxamide] | < 1
15 | Cc1ccc2nc(COc3cnnc(NCc4c(C)cc5c(N)nccc5c4C)c3)cn2c1 [Example 425, 5,7-dimethyl-6-(((5-((6-methylimidazo[1,2-a]pyridin-2-yl)methoxy)pyridazin-3-yl)amino)methyl)isoquinolin-1-amine] | < 1
16 | Cc1cc2c(N)nccc2c(C)c1CNc1cc2nn(Cc3cn4cc(C5CC5)ccc4n3)cc2cn1 [Example 269, 6-(((2-((6-cyclopropylimidazo[1,2-a]pyridin-2-yl)methyl)-2H-pyrazolo[4,3-c]pyridin-6-yl)amino)methyl)-5,7-dimethylisoquinolin-1-amine] | 10 to 100

Row | Compound | EC50 [nM]
17 | Nc1nccc2cc(CNc3cc(OCc4ccc(Cn5cccn5)cc4)ncn3)c(C(F)(F)F)cc12 [Example 535, 6-(((6-((4-((1H-pyrazol-1-yl)methyl)benzyl)oxy)pyrimidin-4-yl)amino)methyl)-7-(trifluoromethyl)isoquinolin-1-amine] | 100 to 1000
18 | Cc1cc2c(N)nccc2c(C)c1CNC(=O)c1cnn(Cc2ccc(CC(=O)N3CC4CC4(C(=O)O)C3)cc2)c1 (stereo not shown) [Example 216, 3-(2-(4-((4-(((1-amino-5,7-dimethylisoquinolin-6-yl)methyl)carbamoyl)-1H-pyrazol-1-yl)methyl)phenyl)acetyl)-3-azabicyclo[3.1.0]hexane-1-carboxylic acid] | 10 to 100
19 | Cc1cc2c(N)nccc2c(C)c1CNc1cc(N2C[C@@H](O[Si](C)(C)C(C)(C)C)C[C@@H]2c2cn3cc(C4CC4)ccc3n2)ncn1 [Example 512, 6-(((6-((2R,4S)-4-((tert-butyldimethylsilyl)oxy)-2-(6-cyclopropylimidazo[1,2-a]pyridin-2-yl)pyrrolidin-1-yl)pyrimidin-4-yl)amino)methyl)-5,7-dimethylisoquinolin-1-amine] | 1 to 10
20 | Cc1cc2c(N)nccc2c(C)c1CNC(=O)c1cnn(Cc2cccc(F)c2)c1 [Example 45, N-((1-amino-5,7-dimethylisoquinolin-6-yl)methyl)-1-(3-fluorobenzyl)-1H-pyrazole-4-carboxamide] | 100 to 1000
21 | Cc1cc2c(N)nccc2c(C)c1CNc1cc(OCc2cn3nc(C4CC4)ccc3n2)nc(C(F)(F)F)n1 [Example 389, 6-(((6-((6-cyclopropylimidazo[1,2-b]pyridazin-2-yl)methoxy)-2-(trifluoromethyl)pyrimidin-4-yl)amino)methyl)-5,7-dimethylisoquinolin-1-amine] | 10 to 100
22 | Cc1cc2c(N)nccc2c(C)c1CNc1cc(OCc2ccc(CC(=O)N(C)C)cc2)ncn1 [Example I-466, 2-(4-(((6-(((1-amino-5,7-dimethylisoquinolin-6-yl)methyl)amino)pyrimidin-4-yl)oxy)methyl)phenyl)-N,N-dimethylacetamide] | 1 to 10
23 | Cc1cc2c(N)nccc2c(C)c1CNc1cc(OCc2ccc(Cn3cccc(C4CC4)c3=O)cc2)cnn1 [Example 437, 1-(4-(((6-(((1-amino-5,7-dimethylisoquinolin-6-yl)methyl)amino)pyridazin-4-yl)oxy)methyl)benzyl)-3-cyclopropylpyridin-2(1H)-one] | < 1
24 | Cc1cc2c(N)nccc2c(C)c1CNC(=O)c1cc(CN)n(Cc2ccccc2)n1 [Example 203, N-((1-amino-5,7-dimethylisoquinolin-6-y1)methyl)-5-(aminomethyl)-1-benzyl-1H-pyrazole-3-carboxamide] | > 1000
25 | Cc1cc2c(N)nccc2c(C)c1CNC(=O)c1cnn(Cc2ccc(Cc3nccs3)cc2)c1 [Example 166, N-((1-amino-5,7-dimethylisoquinolin-6-yl)methyl)-1-(4-(thiazol-2-ylmethyl)benzyl)-1H-pyrazole-4-carboxamide] | < 1
26 | Cc1c(CNC(=O)c2cnn(Cc3cn4cc(C5CC5)ccc4n3)c2)c(C)c2ccnc(N)c2c1C [Example 191, N-((1-amino-5,7,8-trimethylisoquinolin-6-yl)methyl)-1-((6-cyclopropylimidazo[1,2-a]pyridin-2-yl)methy1)-1H-pyrazole-4-carboxamide] | 10 to 100
27 | Cc1cc2c(N)nccc2cc1CNc1cc(OCc2ccc(Cn3cccn3)cc2)ncn1 [Example 534, 6-(((6-((4-((1H-pyrazol-1-yl)methyl)benzyl)oxy)pyrimidin-4-yl)amino)methyl)-7-methylisoquinolin-1-amine] | 10 to 100
28 | Cc1cc2c(N)nccc2c(C)c1CNc1cc(OCc2ccc(CCn3cccn3)cc2)cnn1 [Example 278, 6-(((5-((4-(2-(1H-pyrazol-1-yl)ethyl)benzyl)oxy)pyridazin-3-yl)amino)methyl)-5,7-dimethylisoquinolin-1-amine] | 1 to 10
29 | Cc1cc2c(N)nccc2c(C)c1CNc1cc(OCc2nc3cc(C4CC4)ccc3s2)ncn1 [Example 282, 6-(((6-((5-cyclopropylbenzo[d]thiazol-2-yl)methoxy)pyrimidin-4-yl)amino)methyl)-5,7-dimethylisoquinolin-1-amine] | 100 to 1000
30 | Cc1cc2c(N)nccc2c(C)c1CNc1cc(NCc2ccc(Cn3cccn3)c(C(F)(F)F)c2)ncn1 [Example 383, N^4-(4-((1H-pyrazol-1-yl)methyl)-3-(trifluoromethyl)benzyl)-N^6-((1-amino-5,7-dimethylisoquinolin-6-yl)methyl)pyrimidine-4,5-diamine] | < 1
31 | Cc1cc2c(N)nccc2c(C)c1CNC(=O)c1cnn(Cc2cn3cc(C4CC4)cc(Cc4nnco4)c3n2)c1 [Example 172, 1-((8-((1,3,4-oxadiazol-2-yl)methyl)-6-cyclopropylimidazo[1,2-a]pyridin-2-y1)methyl)-N-((1-amino-5,7-dimethylisoquinolin-6-y1)methyl)-1H-pyrazole-4-carboxamide] | < 1
